Experimental data as given in patent US8591886B2, “Combination therapies employing GITR binding molecules” (GITR, Inc., priority 2007, dated 2013).

System: CT26 cells
Test: CT26 colon carcinoma flank tumor model, Gemzar and 2F8
Format: in vivo, Mice
Details: Kaplan-Meier; Gemzar 80 mg/kg Day 15; 2F8 alone 0.4 mg I.P. Days 15, 16 and 17; FIG. 2
Experimental: One group of control mice was untreated. The group of mice receiving Gemzar was treated with 80 mg/kg Gemzar on Day 15.
GraphPad Prism 4 software was used to plot Kaplan-Meir survival curves and to confirm the median survival times for the groups.

Nc1ccn([C@@H]2O[C@H](CO)[C@@H](O)C2(F)F)c(=O)n1 [Gemzar, gemcitabine]
median survival: 31 days
